Like-named read-outs stand apart in the source and are kept apart here.
Columns and labels:
CB1 receptor = target: T1, CB1 receptor (Rattus norvegicus, UniProt P20272); assay: CP-55,940 induced hypotension in the rat; type: in vivo; conditions: read-out: Blood pressure (rat) ED50
T1 construct: from tissue; host or cells: whole animal: male normotensive rats (Harlan)
Procedure: Blood pressure was measured, via a cannula inserted into the left carotid artery, by means of a Spectramed DTX-plus pressure transducer (Spectramed B. V., Bilthoven, The Netherlands). […] Heart rate was derived from the pulsatile pressure signal. […] The injection volume was 10 ml/kg.

[1] = target: T2, human cannabinoid CB2 receptor (Homo sapiens, UniProt P34972); assay: In vitro affinity for human cannabinoid-CB2 receptors ([3H]CP-55,940 radioligand, CHO cell membranes); type: binding; conditions: mean of at least three independent experiments, read-out: hCB2 Ki
T2 construct: expressed in transfected cells; host or cells: Chinese hamster ovary (CHO) cells, membrane preparation
Procedure: In vitro affinity for human cannabinoid-CB2 receptors.
(§1) The affinity of the compounds of the invention for cannabinoid CB2 receptors can be determined using membrane preparations of Chinese hamster ovary (CHO) cells in which the human cannabinoid CB2 receptor is stably transfected in conjunction with [^3H]CP-55,940 as radioligand. After incubation of a freshly prepared cell membrane preparation with the [^3H]-ligand, with or without addition of compounds of the invention, separation of bound and free ligand is performed by filtration over glassfiber filters. Radioactivity on the filter was measured by liquid scintillation counting.

[2] = target: T3, human cannabinoid CB1 receptor (Homo sapiens, UniProt P21554); assay: In vitro affinity for human cannabinoid-CB1 receptors ([3H]CP-55,940 radioligand, CHO cell membranes); type: binding; conditions: for CB1/CB2 ratio: CB1/CB2 receptor selectivity ratio from hCB1 and hCB2 Ki; for Ki: human CB1 receptor in CHO cell membranes, [3H]CP-55,940, mean of at least three independent experiments, read-out: hCB1 Ki
T3 construct: expressed in transfected cells; host or cells: Chinese hamster ovary (CHO) cells, membrane preparation
Procedure: In vitro affinity for human cannabinoid-CB1 receptors.
as §1, with “CB1” for “CB2”, “is” for “was”

[3] = p.o., antagonism of hypotension induced by CP-55,940 (0.1 mg/kg i.v.), anaesthetized male normotensive rats

T1 sequence (P20272 whole entry): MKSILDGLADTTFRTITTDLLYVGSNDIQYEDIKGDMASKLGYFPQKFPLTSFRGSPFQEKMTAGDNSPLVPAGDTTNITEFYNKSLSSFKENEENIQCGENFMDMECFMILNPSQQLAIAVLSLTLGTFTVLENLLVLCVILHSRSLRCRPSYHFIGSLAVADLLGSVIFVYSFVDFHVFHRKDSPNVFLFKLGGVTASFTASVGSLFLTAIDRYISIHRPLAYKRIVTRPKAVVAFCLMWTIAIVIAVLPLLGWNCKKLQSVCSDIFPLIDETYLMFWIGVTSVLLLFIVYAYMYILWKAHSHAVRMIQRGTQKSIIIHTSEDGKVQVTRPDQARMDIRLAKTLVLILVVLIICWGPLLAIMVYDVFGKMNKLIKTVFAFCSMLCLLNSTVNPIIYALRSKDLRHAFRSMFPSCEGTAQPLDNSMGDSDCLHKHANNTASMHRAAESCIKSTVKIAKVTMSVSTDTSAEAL
T2 sequence (P34972 whole entry): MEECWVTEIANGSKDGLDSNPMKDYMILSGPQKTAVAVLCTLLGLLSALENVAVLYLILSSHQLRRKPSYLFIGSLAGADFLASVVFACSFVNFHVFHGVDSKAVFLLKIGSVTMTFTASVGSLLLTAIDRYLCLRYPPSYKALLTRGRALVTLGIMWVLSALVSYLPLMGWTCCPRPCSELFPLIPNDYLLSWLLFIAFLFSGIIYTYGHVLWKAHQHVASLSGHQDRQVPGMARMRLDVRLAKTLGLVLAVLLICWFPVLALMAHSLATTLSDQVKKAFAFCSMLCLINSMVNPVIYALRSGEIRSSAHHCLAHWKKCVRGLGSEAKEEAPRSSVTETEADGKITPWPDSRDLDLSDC
T3 sequence (P21554 whole entry): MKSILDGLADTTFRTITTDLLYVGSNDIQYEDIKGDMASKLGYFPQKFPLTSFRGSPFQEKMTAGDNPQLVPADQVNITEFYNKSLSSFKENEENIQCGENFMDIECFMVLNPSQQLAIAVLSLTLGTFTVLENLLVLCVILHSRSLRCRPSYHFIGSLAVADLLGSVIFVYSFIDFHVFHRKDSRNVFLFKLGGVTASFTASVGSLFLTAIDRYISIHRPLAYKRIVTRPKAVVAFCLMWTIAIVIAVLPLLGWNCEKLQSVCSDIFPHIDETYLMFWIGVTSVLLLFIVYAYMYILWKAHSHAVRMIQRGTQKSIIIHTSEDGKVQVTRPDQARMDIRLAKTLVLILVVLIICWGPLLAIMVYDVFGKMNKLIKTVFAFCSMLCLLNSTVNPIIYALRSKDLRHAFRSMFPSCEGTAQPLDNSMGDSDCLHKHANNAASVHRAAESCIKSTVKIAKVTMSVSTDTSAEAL

Ki [1] [nM] | CB1/CB2 ratio [2] | Ki [2] [nM] | Compound | ED50 (CB1 receptor) [mg/kg] | melting point [°C] | ED50 (CB1 receptor; [3]) [mg/kg]
340 | >34 | < 10 | CSc1c(C(=O)NN2CCCC2)nn(-c2ccc(Cl)cc2Cl)c1-c1ccc(Cl)cc1 [Comp. 2, 5-(4-Chlorophenyl)-1-(2,4-dichlorophenyl)-4-methylsulfanyl-N-(pyrrolidin-1-yl)-1H-pyrazole-3-carboxamide] | – | – | 1.9
500 | 25 | 20 | CSc1c(C(=O)NN2CCCCCC2)nn(-c2ccc(Cl)cc2Cl)c1-c1ccc(Cl)cc1 [Comp. 3, 5-(4-Chlorophenyl)-1-(2,4-dichlorophenyl)-4-methylsulfanyl-N-(azepan-1-yl)-1H-pyrazole-3-carboxamide] | – | – | 3.1

Compound | Ki [1] [nM] | CB1/CB2 ratio [2] | Ki [2] [nM] | ED50 (CB1 receptor) [mg/kg] | melting point [°C] | ED50 (CB1 receptor; [3]) [mg/kg]
CSc1c(C(=O)NN2CCCCC2)nn(-c2ccc(Cl)cc2Cl)c1-c1ccc(Cl)cc1 [Comp. 1, 5-(4-Chlorophenyl)-1-(2,4-dichlorophenyl)-4-methylsulfanyl-N-(piperidin-1-yl)-1H-pyrazole-3-carboxamide] | 668 | 67 | 10 | 1.5 | 172.4 to 174.5 | –

— patent US8461184B2, “Sulphur containing pyrazole derivatives as selective cannabinoid CB1 receptor antagonists” (Solvay Pharmaceuticals B.V., priority 2006, dated 2013)
